Molecules are shown by their SMILES.

The data set can be described thus: Human HepG2 cell viability assay in 384 well format. It is filed as toxicity, cell-based. On the set-up: dose 125 nL, time 70.5 hour; concentration not given beside the values. As to conditions: HepG2 cells, read-out: Inhibition.
In the case of `CN(CC(=O)NCc1ccccn1)C1CCCN(c2cccnn2)C1` (centres undefined), the cytotoxicity at 70.5 h was found to be 0.301%.

For `CCN(Cc1noc(CC(C)C)n1)Cc1ccccc1C`, the cytotoxicity at 70.5 h was -1.58%.

Take `CNC(=O)C1Cn2ccnc2C2(CCN(Cc3cccs3)CC2)O1` (centres undefined): the cytotoxicity at 70.5 h was found to be 11.6%.

Turning to `COc1ncccc1CN1CC[C@H]2O[C@@H](c3nnc(C)o3)CC[C@H]21`, the cytotoxicity at 70.5 h was -6.07%.

As for `O=C(c1cnc(-c2ccccc2)s1)N1CCC2(CC1)OCCO2`, the cytotoxicity at 70.5 h is 7.39%.

For the molecule `Cn1ccnc1CN1CCN(CCOc2ccccc2C#N)CC1`, the cytotoxicity at 70.5 h worked out at 23.6%.

Turning to `CCCc1cc(C(=O)Nc2nc(SC)ns2)[nH]n1`, the cytotoxicity at 70.5 h was -4.32%.

As for `Cc1ccccc1CSc1ncccc1C(=O)N(C)C`, the cytotoxicity at 70.5 h was -2.93%.

As for `COc1ccc(Cl)cc1NCC(=O)N(Cc1cccnc1)C1CC1`, the cytotoxicity at 70.5 h was -7.28%.

In the case of `COCC(=O)N1C[C@H]2CCCC(OCc3cccnc3)[C@H]2C1` (some centres undefined), the cytotoxicity at 70.5 h is -6.29%.

As for `CCC(CO)N(Cc1ccccc1C)Cc1ccccc1C(=O)O` (centres undefined), the cytotoxicity at 70.5 h is -2.15%.

In the case of `CC(C)c1nccc([C@@H]2C[C@@H]3CCN(Cc4ccco4)C[C@H]3O2)n1`, the cytotoxicity at 70.5 h was found to be 38.3%.

Regarding `CS(=O)(=O)NCc1cncc2c1CCN(C(=O)c1cccnc1)C2`, the cytotoxicity at 70.5 h was -5.3%.

For the molecule `O=C(NCCC1=CCCCC1)C1CCCN(c2ccc3nncn3n2)C1` (centres undefined), the cytotoxicity at 70.5 h was 9.17%.

Turning to `Cc1ccc(NC2CCN(C(=O)CCCc3ccccn3)CC2)nn1`, the cytotoxicity at 70.5 h is 9.21%.

For `Nc1ccc(CC2CCCN(Cc3c[nH]cn3)C2)nn1` (centres undefined), the cytotoxicity at 70.5 h was -2.3%.

As for `Cc1ccc(CN2C(=O)CCC2C(=O)Nc2cnn(C)c2)o1` (centres undefined), the cytotoxicity at 70.5 h is -4.24%.

Turning to `CN1C(=O)CCCC12CCCN(Cc1cccs1)C2` (centres undefined), the cytotoxicity at 70.5 h was -6.68%.

In the case of `OC(CNCCn1cccn1)c1cccc(Br)c1` (centres undefined), the cytotoxicity at 70.5 h was -8.75%.

For `CCO[C@@H]1CC[C@H]2[C@H]1OCCN2C(=O)CC1=CCCCC1`, the cytotoxicity at 70.5 h is -2.71%.

As for `COC(=O)C1CN(Cc2ccccc2C(C)(C)C#N)CCO1` (centres undefined), the cytotoxicity at 70.5 h is -5.04%.

As to `O=C(CN1CCSCC1c1ccccc1)N1CCCC1` (centres undefined), the cytotoxicity at 70.5 h amounted to 20%.

`CN(C)C(=O)C1CCC2(CCN(C(=O)Nc3ccc(F)cc3)CC2)O1` (centres undefined): the cytotoxicity at 70.5 h was -12.4%.

`CC(C)c1ocnc1C(=O)N1CCC(=O)Nc2cccnc21`: the cytotoxicity at 70.5 h is -13.9%.

With `CCC(CC)NC(=O)CN1CCN(C(=O)N(C)C)CC1`, the cytotoxicity at 70.5 h is -0.0942%.

As to `c1coc(-c2nc(CNC3CCC4(CCNCC4)CC3)no2)c1`, the cytotoxicity at 70.5 h is -3.78%.

Regarding `CCN1CCN2CCCN(S(=O)(=O)c3ccc(S(C)(=O)=O)cc3)C2C1=O` (centres undefined), the cytotoxicity at 70.5 h is -7.94%.

In the case of `Cc1nc2n(n1)CCN(S(=O)(=O)c1ccc(OC(F)(F)F)cc1)C2`, the cytotoxicity at 70.5 h is -1.32%.

Regarding `CC(=O)N1CCN(CCNc2snc(Cl)c2C#N)CC1`, the cytotoxicity at 70.5 h is -5.16%.

In the case of `FC(F)(F)CCc1ccnc(NCc2csc(N3CCOCC3)n2)n1`, the cytotoxicity at 70.5 h is -10.4%.

Turning to `CCN1C(=O)CCCC12CCCN(C(=O)c1cc(C)oc1C)C2` (centres undefined), the cytotoxicity at 70.5 h was -9.36%.

As for `Cn1ncc2c(NC3CCCN(C(=O)C4CC4)C3)nc(C(C)(C)C)nc21` (centres undefined), the cytotoxicity at 70.5 h stood at 2.96%.

As to `CN(C)C(=O)N1CC(C(=O)NCC2CC2)C2(CCOCC2)C1` (centres undefined), the cytotoxicity at 70.5 h worked out at 3.79%.

Take `Cc1cc(N2CCCN(Cc3ccc(C)o3)CC2)ccn1`: the cytotoxicity at 70.5 h was -3.18%.

For `O=C(CC1CC1)N1CCc2ncc(Cn3cncn3)n2CC1`, the cytotoxicity at 70.5 h was -14.1%.

Regarding `COCCCN1CC2(CCCCN2C(C)=O)CC1=O` (centres undefined), the cytotoxicity at 70.5 h was -7.86%.

Take `Cc1ccc(CN2CC[C@H]3[C@H](CO[C@H]3CN(C)C)C2)o1`: the cytotoxicity at 70.5 h was -11.7%.

Regarding `O=C(NCc1ccccc1CN1CCC(O)CC1)Nc1ccncc1`, the cytotoxicity at 70.5 h turned out to be 9.61%.

On to `CCN1CCN(CCNc2nc3ccc(C)cc3c(=O)n2C)CC1`, for which the cytotoxicity at 70.5 h is 11.8%.

`COc1ccc(C(=O)N(CCO)Cc2ccccc2)c(OC)n1`: the cytotoxicity at 70.5 h turned out to be 21.2%.

Consider `CC(C)c1nc(CN(CC(N)=O)C(C)C)cs1`, for which the cytotoxicity at 70.5 h was -2.05%.

For `O=C(Cc1cn2ccsc2n1)N1CCCC(n2cccn2)C1` (centres undefined), the cytotoxicity at 70.5 h is -3.32%.

In the case of `COc1ccc(C(=O)NS(=O)(=O)c2ccc(C#N)cc2C(F)(F)F)cc1`, the cytotoxicity at 70.5 h was -16.9%.

Take `Cc1sc2c(C3CCNCC3)nc(Nc3cccc(F)c3)n2c1C`: the cytotoxicity at 70.5 h was found to be 15.7%.

Turning to `O=C(c1cocn1)N1CC[C@H]2OCC[C@@]2(COc2ncccc2F)C1`, the cytotoxicity at 70.5 h is -15.1%.

As to `c1ccc2c(c1)C(NC1CCCC1)CC21CCNCC1` (centres undefined), the cytotoxicity at 70.5 h was -1.32%.

For the molecule `CCCN1CCC(c2nc3ccc(C)cn3n2)CC1`, the cytotoxicity at 70.5 h was -6.41%.

With `CC(C)Sc1nnc(CCNC(=O)OC(C)(C)C)o1`, the cytotoxicity at 70.5 h was 26.1%.

As for `Cc1nc(C2CCCN(C(=O)c3ccc(S(C)(=O)=O)cc3)C2)no1` (centres undefined), the cytotoxicity at 70.5 h is -6.59%.

Take `Cc1nc(CN2CCN(C(=O)C(c3ccccc3C)N(C)C)CC2)no1` (centres undefined): the cytotoxicity at 70.5 h was -7.12%.

Take `CNC(=O)CCc1cccc(C2CCCN(c3cc(C)ncn3)C2)n1` (centres undefined): the cytotoxicity at 70.5 h was -2.33%.

Take `CNS(=O)(=O)c1ccc(CN(C)Cc2nc3ccc(F)cc3[nH]2)cc1`: the cytotoxicity at 70.5 h is -4.95%.

For the molecule `Cc1nc2cc(NC(=O)Cn3ncc(N4CCCC4)cc3=O)ccc2s1`, the cytotoxicity at 70.5 h is -4.89%.

As to `c1cnn(CCC2CCN(Cc3ccc4[nH]ccc4c3)CC2)c1`, the cytotoxicity at 70.5 h stood at 0.43%.

Take `COc1ccccc1CC(NC(=O)N1CCOCC1)C(C)C` (centres undefined): the cytotoxicity at 70.5 h was found to be 17.3%.

For `CC1=N[C@@]2(CC[C@@H]3CN(C(=O)NCc4cccc(F)c4)C[C@@H]32)C(=O)N1`, the cytotoxicity at 70.5 h is -3.91%.

As to `COc1ccc(C(=O)Nc2c(C)nc3cccc(C)n3c2=O)cc1`, the cytotoxicity at 70.5 h was -17.1%.

Consider `Cc1cc(CC(C)NC(=O)COc2ccc(F)cc2F)[nH]n1` (centres undefined), for which the cytotoxicity at 70.5 h was -5.3%.

Take `O=C(N[C@@H]1CN(Cc2cccs2)[C@@H]2COC[C@@H]21)C1CCC1`: the cytotoxicity at 70.5 h was -4.79%.

As to `CO[C@@H]1CO[C@@]2(CCCN(S(=O)(=O)c3ccccc3)C2)C1`, the cytotoxicity at 70.5 h is -14.8%.

As for `CC(C)CC(CCO)CNC(=O)N1CC(C)(C)C1(C)C` (centres undefined), the cytotoxicity at 70.5 h is -7.83%.

Regarding `Cc1cc(C)nc(N2CCCC(C(=O)Nc3n[nH]c(C(C)C)n3)C2)n1` (centres undefined), the cytotoxicity at 70.5 h is -7.23%.

As for `CCOC(C)c1nc(CN2CCN(c3ncc(C)cn3)CC2)cs1` (centres undefined), the cytotoxicity at 70.5 h was -5.09%.

`Cn1ccc(C(=O)N2CCC3(CCC(=O)N(C4CCCC4)C3)CC2)n1`: the cytotoxicity at 70.5 h amounted to 12.2%.

Turning to `CC(=O)N1CCN(C(=O)c2cnn(-c3ccccc3Cl)c2)CC1`, the cytotoxicity at 70.5 h was 3.15%.

On to `NC1CCc2c(ccc(=O)n2Cc2ccncc2)C1` (centres undefined), for which the cytotoxicity at 70.5 h is 2.44%.

As to `CCc1ncc2c(n1)CN(C(C)C(=O)N1CCOCC1)CC2` (centres undefined), the cytotoxicity at 70.5 h came out at 17%.

In the case of `O=c1cc(N2CCNCC2)cnn1CCc1ccc(F)cc1`, the cytotoxicity at 70.5 h was -4.81%.

Take `O=C1OCCN1CCNC(=O)C1(N2CCCCC2)Cc2ccccc2C1`: the cytotoxicity at 70.5 h is -7.56%.

On to `c1cncc(CN(Cc2ccc(-n3ccnc3)cc2)CC2CCCO2)c1` (centres undefined), for which the cytotoxicity at 70.5 h was 13.2%.

`Nc1nccnc1CC1CCCN(Cc2c[nH]c3ccccc23)C1` (centres undefined): the cytotoxicity at 70.5 h was -9.09%.

For `CC(C)[C@H](NC(=O)NC1CCS(=O)(=O)C1)C(=O)NCc1ccccc1Cl` (some centres undefined), the cytotoxicity at 70.5 h came to 0.909%.

As to `Cc1nc(C2CCCC2)sc1C(N)=O`, the cytotoxicity at 70.5 h is 12%.

Take `CN(C)c1cnn(CC(=O)N2CCCCCC2)c(=O)c1`: the cytotoxicity at 70.5 h was -0.929%.

As to `CC(C)N(Cc1cccnc1)C(=O)CSc1ccc(C#N)cc1`, the cytotoxicity at 70.5 h is -8.92%.

Turning to `CC(C)c1noc(CCCC(=O)Nc2cccc(F)c2)n1`, the cytotoxicity at 70.5 h amounted to 15.5%.

Consider `O=C(C1CCCCO1)N1CCc2ncnc(NCc3ccon3)c2CC1` (centres undefined), for which the cytotoxicity at 70.5 h was -9.14%.

For the molecule `Cc1nc(-c2cccc(N3CCC(N4CCCC(C#N)C4)CC3)c2)cs1` (centres undefined), the cytotoxicity at 70.5 h is 22.1%.

Turning to `Cc1cc(C)c(C#N)c(N2CCC(Cc3ccccc3)CC2)n1`, the cytotoxicity at 70.5 h is -2.18%.

Regarding `CC(CCN(C)C)NC(=O)c1cccc(C(F)(F)F)c1F` (centres undefined), the cytotoxicity at 70.5 h is -1.47%.

As to `COCc1cnc2n1CCN(S(=O)(=O)N(C)C)C2C` (centres undefined), the cytotoxicity at 70.5 h is -15.1%.

Turning to `Cc1cnc(NCc2cnn(C)c2)nc1-c1cnn(C)c1`, the cytotoxicity at 70.5 h is 13.5%.

Consider `CS(=O)(=O)NC[C@H]1OC[C@@H](NC2CCC(F)(F)CC2)[C@@H]1O`, for which the cytotoxicity at 70.5 h was -5.87%.

For `Cc1nnc2n1CCN(C(C(=O)NC(C)C)c1ccccc1)C2` (centres undefined), the cytotoxicity at 70.5 h was 19.5%.

As for `CC(CCN1CCOCC1)NC(=O)c1cccc(C(F)(F)F)c1F` (centres undefined), the cytotoxicity at 70.5 h was -5.66%.

Turning to `O=C(C1CCOCC1)N1CCc2onc(COc3cccnc3)c2C1`, the cytotoxicity at 70.5 h was found to be 0.0469%.

Turning to `CC(=O)Nc1nc(C2CCN(C(=O)c3cccnc3)CC2)cs1`, the cytotoxicity at 70.5 h was -15.5%.

For the molecule `Cc1cccc(NC(=O)C2CCc3ccccc3N2)c1` (centres undefined), the cytotoxicity at 70.5 h was -0.623%.

On to `O=C(NCc1cccnc1)c1nc2c(s1)CCCN2c1ncccn1`, for which the cytotoxicity at 70.5 h came to 5.15%.

For `Cc1ccsc1CN1CCC2(CC1)CC(OCc1cccnc1)CO2` (centres undefined), the cytotoxicity at 70.5 h was -0.0736%.

Take `COc1ccc(OCCC(=O)N2CCCC2Cn2cccn2)cc1` (centres undefined): the cytotoxicity at 70.5 h amounted to 0.4%.

`CCS(=O)(=O)c1ncc(CN(C)Cc2ccccc2OC)n1CCOC`: the cytotoxicity at 70.5 h was -5.74%.

Take `O=C(c1ccc(=O)[nH]c1)N1CCC(Oc2cccc(C(F)(F)F)c2)CC1`: the cytotoxicity at 70.5 h is 3.69%.

Regarding `O=C(CC1NC(N2CCc3ccccc32)=NC1=O)Nc1ccc(Cl)cc1` (centres undefined), the cytotoxicity at 70.5 h was -11.1%.

On to `N#Cc1ccc(C(=O)N2CCC3(CC2)CC3)cc1`, for which the cytotoxicity at 70.5 h amounted to 4.59%.

Consider `Cc1ncc(C(=O)N2CCCC2c2c(C)nn(C)c2C)s1` (centres undefined), for which the cytotoxicity at 70.5 h is -2.56%.

On to `CCOC(=O)N1CCN(C(=O)c2snnc2-c2ccc(OC)cc2)CC1`, for which the cytotoxicity at 70.5 h is -11.6%.

On to `Cc1cccc(N2CCN(Cc3nc(CC4CC4)no3)CC2)n1`, for which the cytotoxicity at 70.5 h stood at 1.5%.

With `O=C(NCc1nnc2n1CCC2)c1cccc(Br)c1`, the cytotoxicity at 70.5 h is -9.88%.

Values taken from ChEMBL document CHEMBL3507680, “University of Dundee, Gates Library screen for HepG2 cell viability”.
